Results as given in US20230002397A1, “SMALL MOLECULE DEGRADERS OF HELIOS AND METODS OF USE” (DANA-FARBER CANCER INSTITUTE, INC., priority 2019, published 2023).

Target: T1, IKZF2 (Homo sapiens, UniProt Q96SW2+Q9UKS7)
T1 construct: CRISPR/Cas9—mediated insertion of the HiBiT peptide tag (Promega™) to the N-terminus of the IKZF2 gene locus; endogenous in cells; host or cells: MOLT4 cells, with CRISPR/Cas9 knock-in of HiBiT at the endogenous IKZF2 locus
Test: HiBit-IKZF2 assay (HiBiT-Helios degradation in MOLT4 cells)
Type: cell-based
Settings: for Dmax: MOLT-4, extent of degradation from highest to lowest concentration, 10 μM to 0.00026 μM, read-out: Dmax; for DC50: concentration at which 50% of HiBiT-Helios degradation was achieved
Procedure: The HiBiT protein tagging system was applied to MOLT4 cells via a CRISPR/Cas9—mediated insertion of the HiBiT peptide tag (Promega™) to the N-terminus of the IKZF2 gene locus (Neon™ Transfection System). The resulting HiBiT-Helios stable cell line was treated with the following compounds in triplicates following a 13-point concentration scheme ranging from 10 μM to 0.00026 μM. At the indicated timepoints, the Nano-Glo® HiBiT Lytic Detection System (Promega™) was utilized for detecting bioluminescence of the HiBiT tag in treated cells: abundance of the tag is proportionate to the level of luminescence. Following normalization to DMSO, dose-response curves were plotted (GraphPad Prism) to determine the concentration points at which 50% of HiBiT-Helios degradation was achieved by each compound. The extent of degradation (range of luminescence) from the highest to lowest concentration points was calculated to determine the Dmax.

T1 sequence (Q9UKS7 whole entry): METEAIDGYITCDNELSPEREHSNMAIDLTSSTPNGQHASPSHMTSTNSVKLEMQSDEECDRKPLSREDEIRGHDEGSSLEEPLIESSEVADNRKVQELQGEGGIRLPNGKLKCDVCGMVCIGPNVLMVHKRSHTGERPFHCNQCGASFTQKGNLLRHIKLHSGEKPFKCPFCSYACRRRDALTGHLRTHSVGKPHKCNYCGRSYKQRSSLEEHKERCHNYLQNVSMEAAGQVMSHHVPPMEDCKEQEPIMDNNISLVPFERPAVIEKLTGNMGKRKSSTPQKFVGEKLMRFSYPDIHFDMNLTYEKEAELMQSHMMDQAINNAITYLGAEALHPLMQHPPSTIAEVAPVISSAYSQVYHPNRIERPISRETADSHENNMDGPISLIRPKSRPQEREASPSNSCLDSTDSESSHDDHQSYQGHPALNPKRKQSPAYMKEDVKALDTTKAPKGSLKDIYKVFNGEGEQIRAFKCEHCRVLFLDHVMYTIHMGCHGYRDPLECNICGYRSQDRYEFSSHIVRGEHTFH
T1 sequence (Q96SW2 whole entry): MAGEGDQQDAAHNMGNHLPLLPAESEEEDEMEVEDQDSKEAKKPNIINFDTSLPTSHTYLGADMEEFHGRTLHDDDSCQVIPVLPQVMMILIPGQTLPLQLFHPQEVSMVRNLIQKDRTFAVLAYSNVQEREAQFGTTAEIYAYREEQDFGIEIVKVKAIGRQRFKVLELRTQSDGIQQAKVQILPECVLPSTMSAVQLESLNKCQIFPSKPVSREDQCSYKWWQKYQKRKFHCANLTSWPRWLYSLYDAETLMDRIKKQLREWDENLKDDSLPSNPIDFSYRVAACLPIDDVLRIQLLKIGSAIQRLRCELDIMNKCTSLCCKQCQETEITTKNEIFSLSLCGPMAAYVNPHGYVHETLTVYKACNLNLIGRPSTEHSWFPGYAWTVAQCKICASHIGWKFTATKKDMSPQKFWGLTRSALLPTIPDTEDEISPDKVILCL
T1 sequence (Q16531 whole entry partner): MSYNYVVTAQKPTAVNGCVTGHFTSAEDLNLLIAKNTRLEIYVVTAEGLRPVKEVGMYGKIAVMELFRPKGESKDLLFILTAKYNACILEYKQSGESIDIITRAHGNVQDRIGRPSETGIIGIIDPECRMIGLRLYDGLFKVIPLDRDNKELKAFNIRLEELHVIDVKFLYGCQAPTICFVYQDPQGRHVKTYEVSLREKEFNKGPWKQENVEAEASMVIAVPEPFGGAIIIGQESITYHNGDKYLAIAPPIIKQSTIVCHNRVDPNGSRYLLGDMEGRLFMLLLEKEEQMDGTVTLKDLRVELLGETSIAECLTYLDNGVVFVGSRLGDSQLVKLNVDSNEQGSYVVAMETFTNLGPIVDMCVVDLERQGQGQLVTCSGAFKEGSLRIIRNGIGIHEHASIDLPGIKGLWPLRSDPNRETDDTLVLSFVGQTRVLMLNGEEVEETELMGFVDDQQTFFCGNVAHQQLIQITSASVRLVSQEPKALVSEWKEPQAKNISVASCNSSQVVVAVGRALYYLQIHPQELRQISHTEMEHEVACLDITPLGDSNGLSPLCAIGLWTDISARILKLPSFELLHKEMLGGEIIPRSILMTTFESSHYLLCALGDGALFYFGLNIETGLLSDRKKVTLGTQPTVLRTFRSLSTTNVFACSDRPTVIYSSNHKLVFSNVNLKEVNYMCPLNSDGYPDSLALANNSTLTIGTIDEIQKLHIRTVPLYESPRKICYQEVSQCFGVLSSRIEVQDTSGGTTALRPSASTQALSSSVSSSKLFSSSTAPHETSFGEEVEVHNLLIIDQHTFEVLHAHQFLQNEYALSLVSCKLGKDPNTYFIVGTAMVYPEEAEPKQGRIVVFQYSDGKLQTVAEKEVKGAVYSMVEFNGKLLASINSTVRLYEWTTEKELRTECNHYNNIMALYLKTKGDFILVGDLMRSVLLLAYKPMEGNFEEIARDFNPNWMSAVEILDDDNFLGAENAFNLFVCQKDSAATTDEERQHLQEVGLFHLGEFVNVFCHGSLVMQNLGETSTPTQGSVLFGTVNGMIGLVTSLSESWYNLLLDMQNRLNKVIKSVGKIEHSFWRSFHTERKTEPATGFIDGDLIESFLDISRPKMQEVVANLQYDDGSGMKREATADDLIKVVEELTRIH

Dmax | DC50 | Structure (SMILES)
50 to 70% | < 10 nM | O=C1CCC(N2Cc3cc(C4CCN(Cc5ccc6c(c5)C(=O)N(c5ccccc5)CC6)CC4)ccc3C2=O)C(=O)N1 (centres unmarked) [Compound 105, 3-(1-oxo-5-(1-((1-oxo-2-phenyl-1,2,3,4-tetrahydroisoquinolin-7-yl)methyl)piperidin-4-yl)isoindolin-2-yl)piperidine-2,6-dione]
30 to 50% | 10 to 30 nM | O=C1CCC(N2Cc3cc(C4CCN(Cc5cccc(Nc6ncc(F)cn6)c5)CC4)ccc3C2=O)C(=O)N1 (centres unmarked) [Compound 226]
50 to 70% | 10 to 30 nM | Cc1cnc(Nc2cccc(CN3CCC(c4ccc5c(c4)CN(C4CCC(=O)NC4=O)C5=O)CC3)c2)nc1 (centres unmarked) [Compound 228]
50 to 70% | 10 to 30 nM | O=C1CCC(N2Cc3cc(C4CCN(Cc5cccc(Nc6ccsn6)c5)CC4)ccc3C2=O)C(=O)N1 (centres unmarked) [Compound 233]
30 to 50% | 30 to 150 nM | O=C1CCC(N2Cc3cc(C4CCN(Cc5ccccc5N5Cc6ccccc6C5=O)CC4)ccc3C2=O)C(=O)N1 (centres unmarked) [Compound 117]
30 to 50% | 30 to 150 nM | O=C1CCC(N2Cc3cc(C4CCN(Cc5cccnc5Oc5ccccc5)CC4)ccc3C2=O)C(=O)N1 (centres unmarked) [Compound 119]
50 to 70% | < 10 nM | Cc1ccc(N2Cc3ccc(CN4CCC(c5ccc6c(c5)CN(C5CCC(=O)NC5=O)C6=O)CC4)cc3C2=O)cc1 (centres unmarked) [Compound 216]
50 to 70% | < 10 nM | O=C1CCC(N2Cc3cc(C4CCN(Cc5ccc(S(=O)(=O)N(c6ccccc6)C6COC6)cc5)CC4)ccc3C2=O)C(=O)N1 (centres unmarked) [Compound 165]
50 to 70% | 10 to 30 nM | O=C1CCC(N2Cc3cc(C4CCN(Cc5cnc(Nc6ccccc6)o5)CC4)ccc3C2=O)C(=O)N1 (centres unmarked) [Compound 191]
50 to 70% | 10 to 30 nM | O=C1CCC(N2Cc3cc(C4CCN(Cc5ccc6c(c5)C(=O)N(c5ccccn5)CCC6)CC4)ccc3C2=O)C(=O)N1 (centres unmarked) [Compound 184]
50 to 70% | 10 to 30 nM | O=C1CCC(N2Cc3cc(C4CCN(Cc5cccc(N6Cc7cccnc7C6=O)c5)CC4)ccc3C2=O)C(=O)N1 (centres unmarked) [Compound 129]
50 to 70% | 30 to 150 nM | O=C1CCC(N2Cc3cc(C4CCN(Cc5ccc(C(=O)Nc6ccccc6)nc5)CC4)ccc3C2=O)C(=O)N1 (centres unmarked) [Compound 141]
30 to 50% | 10 to 30 nM | O=C1CCC(N2Cc3cc(C4CCN(Cc5cccc(N6CCC7(CC7)C6=O)c5)CC4)ccc3C2=O)C(=O)N1 (centres unmarked) [Compound 10]
50 to 70% | < 10 nM | CN(c1ccccc1)S(=O)(=O)c1cccc(CN2CCC(c3ccc4c(c3)CN(C3CCC(=O)NC3=O)C4=O)CC2)c1 (centres unmarked) [Compound 98]
50 to 70% | < 10 nM | O=C1CCC(N2Cc3cc(C4CCN(Cc5ccc(S(=O)(=O)Nc6ccccc6)cc5)CC4)ccc3C2=O)C(=O)N1 (centres unmarked) [Compound 91]
50 to 70% | < 10 nM | O=C1CCC(N2Cc3cc(C4CCN(Cc5ccnc(Nc6ccccc6)c5)CC4)ccc3C2=O)C(=O)N1 (centres unmarked) [Compound 137]
50 to 70% | 10 to 30 nM | O=C1CCC(N2Cc3cc(C4CCN(Cc5ccc6c(c5)CN(c5ccccc5)C6=O)CC4)ccc3C2=O)C(=O)N1 (centres unmarked) [Compound 123]
50 to 70% | < 10 nM | O=C1CCC(N2Cc3cc(C4CCN(Cc5cccc(N6Cc7ccccc7S6(=O)=O)c5)CC4)ccc3C2=O)C(=O)N1 (centres unmarked) [Compound 136]
50 to 70% | 30 to 150 nM | O=C1CCC(N2Cc3cc(C4CCN(Cc5cnc(Nc6ccccc6)nc5)CC4)ccc3C2=O)C(=O)N1 (centres unmarked) [Compound 139]
50 to 70% | < 10 nM | CP(C)(=O)c1ccccc1NC(=O)c1cccc(CN2CCC(c3ccc4c(c3)CN(C3CCC(=O)NC3=O)C4=O)CC2)c1 (centres unmarked) [Compound 138]
50 to 70% | < 10 nM | O=C1CCC(N2Cc3cc(C4CCN(Cc5cccc(Nc6ncc(Cl)cn6)c5)CC4)ccc3C2=O)C(=O)N1 (centres unmarked) [Compound 227]
50 to 70% | 30 to 150 nM | O=C1CCC(N2Cc3cc(C4CCN(Cc5cccc(N6CCN(c7ccccc7)C6=O)c5)CC4)ccc3C2=O)C(=O)N1 (centres unmarked) [Compound 48]
> 70% | 10 to 30 nM | Cc1cccc(N2Cc3ccc(CN4CCC(c5ccc6c(c5)CN(C5CCC(=O)NC5=O)C6=O)CC4)cc3C2=O)c1 (centres unmarked) [Compound 215]
50 to 70% | 10 to 30 nM | O=C1CCC(N2Cc3cc(C4CCN(Cc5cccc6c5CN(c5ccccn5)C6=O)CC4)ccc3C2=O)C(=O)N1 (centres unmarked) [Compound 124]
50 to 70% | < 10 nM | O=C1CCC(N2Cc3cc(C4CCN(Cc5ccc6c(c5)C(=O)N(c5ccccc5F)C6)CC4)ccc3C2=O)C(=O)N1 (centres unmarked) [Compound 174]

Structure (SMILES) | Dmax | DC50
O=C1CCC(N2Cc3cc(C4(O)CCN(Cc5ccc6ncccc6c5)CC4)ccc3C2=O)C(=O)N1 (centres unmarked) [Compound 279] | > 70% | < 10 nM
O=C1CCC(N2Cc3cc(C4(O)CCN(Cc5ccc(Oc6ccccc6)cc5)CC4)ccc3C2=O)C(=O)N1 (centres unmarked) [Compound 253] | 50 to 70% | < 10 nM
Cc1ccc(C)n1-c1ccc(CN2CCC(O)(c3ccc4c(c3)CN(C3CCC(=O)NC3=O)C4=O)CC2)cc1 (centres unmarked) [Compound 278] | > 70% | 10 to 30 nM
O=C1CCC(N2Cc3cc(C4(O)CCN(Cc5ccc(OC(F)F)cc5)CC4)ccc3C2=O)C(=O)N1 (centres unmarked) [Compound 247] | > 70% | < 10 nM
O=C1CCC(N2Cc3cc(C4(O)CCN(Cc5ccc(F)c(Cl)c5)CC4)ccc3C2=O)C(=O)N1 (centres unmarked) [Compound 255] | > 70% | < 10 nM
O=C1CCC(N2Cc3cc(C4(O)CCN(Cc5cccc(F)c5)CC4)ccc3C2=O)C(=O)N1 (centres unmarked) [Compound 257] | > 70% | < 10 nM
O=C1CCC(N2Cc3cc(C4(O)CCN(Cc5cccc(F)c5F)CC4)ccc3C2=O)C(=O)N1 (centres unmarked) [Compound 243] | > 70% | < 10 nM
O=C1CCC(N2Cc3cc(C4(O)CCN(Cc5ccc(F)cc5)CC4)ccc3C2=O)C(=O)N1 (centres unmarked) [Compound 258] | > 70% | < 10 nM
O=C1CCC(N2Cc3cc(C4(O)CCN(Cc5ccnc(Nc6ccccc6)c5F)CC4)ccc3C2=O)C(=O)N1 (centres unmarked) [Compound 198] | > 70% | < 10 nM
O=C1CCC(N2Cc3cc(C4(O)CCN(Cc5ccc6c(c5)C(=O)N(c5ccccc5)C6)CC4)ccc3C2=O)C(=O)N1 (centres unmarked) [Compound 200, 3-(5-(4-hydroxy-1-((3-oxo-2-phenylisoindolin-5-yl)methyl)piperidin-4-yl)-1-oxoisoindolin-2-yl)piperidine-2,6-dione] | > 70% | < 10 nM
O=C1CCC(N2Cc3cc(C4(O)CCN(Cc5ccccc5Oc5ccccc5)CC4)ccc3C2=O)C(=O)N1 (centres unmarked) [Compound 252] | > 70% | < 10 nM
COc1cccc(CN2CCC(O)(c3ccc4c(c3)CN(C3CCC(=O)NC3=O)C4=O)CC2)c1 (centres unmarked) [Compound 261] | > 70% | < 10 nM
O=C1CCC(N2Cc3cc(C4(O)CCN(Cc5ccccc5OC(F)F)CC4)ccc3C2=O)C(=O)N1 (centres unmarked) [Compound 248] | > 70% | < 10 nM
O=C1CCC(N2Cc3cc(C4(O)CCN(Cc5ccc6ccccc6c5)CC4)ccc3C2=O)C(=O)N1 (centres unmarked) [Compound 203] | > 70% | < 10 nM
N#CC1(COc2ccccc2CN2CCC(O)(c3ccc4c(c3)CN(C3CCC(=O)NC3=O)C4=O)CC2)CC1 (centres unmarked) [Compound 209] | 50 to 70% | 10 to 30 nM
